Measurements as given in patent US11649430B2 (priority 2018, dated 2023).
“Also recorded” adds a separate entry of the source.

What was measured:
[1] = tested on: A. flavus spores
[2] = Antioxidant Assay (OxiSelect Total Antioxidant Capacity Assay Kit); format: biochemical; settings: 0-1 mM; compared to uric acid; absorbance 490 nm (Supporting Figure S9)
Method: Antioxidant Assay: ROS quenching potential of the imizoquins was analyzed using the OxiSelect™ Total Antioxidant Capacity Assay Kit (Cell Biolabs, Inc., San Diego, Calif.) following the manufacturer's instructions. Briefly, 20 μL of diluted uric acid standards (0-1 mM) and imizoquins (0-1 mM) were combined with 180 μL of 1× reaction buffer/well in a Costar® 96 well plate. After mixing thoroughly, an initial absorbance was obtained at 490 nm using a BioTek EPOCH 2 microplate reader with Gen5 acquisition software. Then 50 μL of the 1× copper ion reagent was added into each well and the plate was incubated for 5 minutes on an orbital shaker. To terminate the reaction, 50 μL of 1× stop solution was added and the final absorbance was measured again at 490 nm.

[3] = tested on: A. oryzae; test: Germination assay with purified imizoquins, A. oryzae; format: cell-based, Aspergillus oryzae
Method: (§1) Germination Assay: Each strain was grown in triplicate in 2 mL of liquid GMM inoculated with 1×10^5 spores mL^−1 in a well of a sterile Costar® 12-well plate (Corning) and incubated at 30° C. in OKO-Lab microscopic enclosure equipped with a Nikon Eclipse Ti inverted microscope. Germinated spores were observed using a Nikon Plan Fluor 20xPh1 DLL objective and phase-contrast microscope. A spore was considered germinated when the length of the spore protrusion (emerging hyphal tip) exceeded the spore's diameter^15,33. Images were captured hourly using the Nikon NIS Elements AR software package (v. 4.13), and the germination rate was determined by counting germlings per hundred spores. The experiment was repeated three times.
(§2) Germination Assay with Purified Imizoquins. Compounds 1-2 were assessed for their effect on germination of different fungal strains. Each metabolite was dissolved in methanol at a starting concentration of 10 mg mL^−1 and stored at −80° C. Sterile Costar® 96 well plates containing 100 μL of GMM supplemented with various concentrations of purified 1-2 (0.1 mM, 0.2 mM, 0.4 mM, 0.8 mM and 1.2 mM) were inoculated at 1×10^5 spores/well. Spores treated with equivalent volumes of the carrier (methanol) served as negative controls for each experiment. The germination rate (%) was measured as above with each treatment assayed in triplicate.

[4] = tested on: A. flavus; format: cell-based, Aspergillus flavus; settings: for germination rate: 0.1 mM, 0.2 mM, 0.4 mM
[5] = tested on: R. solanacearum; format: cell-based, Ralstonia solanacearum; settings: WT (GMI1000) strain; 0.4 mM; 24 hours
[6] = tested on: A. nidulans; test: Germination assay with purified imizoquins, A. nidulans; format: cell-based, Aspergillus nidulans
Method: as §1, §2

[7] = tested on: A. flavus; test: Germination ROS assay (H2O2 plus imizoquin A); format: cell-based, Aspergillus flavus; settings: 0.7 mM H2O2, 0.1, 0.2, 0.4 mM compound
[8] = tested on: Penicillium expansum; test: Germination assay with purified imizoquins, Penicillium expansum; format: cell-based
Method: as §1, §2

[9] = tested on: A. fumigatus; test: Germination assay with purified imizoquins, A. fumigatus; format: cell-based, Aspergillus fumigatus
Method: as §1, §2

Row | Structure (SMILES) | antioxidant activity (ROS quenching potential) [2] | germination rate [4] | R. solanacearum growth (OD) [5] | germination rate in the presence of H2O2 ([7]; WT strain) | germination rate in the presence of H2O2 ([7]; ΔimqK strain) | germination [4] | further results
1 | OO [H2O2, hydrogen peroxide] |  |  |  |  |  |  | spore survival [1]: 50%
2 | COC1=C(O)C(=O)C2=C(C1=O)[C@H]1N[C@@H](Cc3c[nH]c4ccccc34)C(=O)N1C(C(=O)N[C@@H](CC(C)CO)C(=O)O)C2 (stereo partly shown) [Imizoquin A, imizoquin A] | significant antioxidant activities | restores germination in the ΔimqK mutant in a dose-dependent manner; also recorded: increased germination of both ΔimqK and WT to above that of untreated OE::imqK | decreases R. solanacearum growth modestly | counteracted the germination inhibitory activity of H2O2 | counteracted the germination inhibitory activity of H2O2 |  | concentration up to which the germination effect is dose-dependent ([3]; A. oryzae): about 0.4 mM; germination rate ([3]; A. oryzae (Supporting Figure S8)): increases the germination rate; germination rate [6]: increases the germination rate; concentration up to which the germination effect is dose-dependent ([6]; A. nidulans): about 0.4 mM; germination rate in the presence of H2O2 ([7]; WT strain, listed as imizoquin A): protected spores from the germination inhibitory effects of H2O2; germination rate in the presence of H2O2 ([7]; ΔimqK strain, listed as imizoquin A): protected spores from the germination inhibitory effects of H2O2; concentration up to which the germination effect is dose-dependent [8]: about 0.4 mM; germination rate [8]: increased the germination rate; germination rate [9]: increases the germination rate; concentration up to which the germination effect is dose-dependent ([9]; A. fumigatus): about 0.4 mM
3 | COC1=C(O)C(=O)C2=C(C1=O)[C@H]1N[C@@H](Cc3c[nH]c4ccccc34)C(=O)N1C(C(=O)N[C@@H](CC(CO)CO)C(=O)O)C2 (stereo partly shown) [Imizoquin B, imizoquin B] | significant antioxidant activities | restores germination in the ΔimqK mutant in a dose-dependent manner; also recorded: increased germination of both ΔimqK and WT to above that of untreated OE::imqK | decreases R. solanacearum growth modestly | protected spores from the germination inhibitory effects of H2O2 | protected spores from the germination inhibitory effects of H2O2 |  | 
4 | COc1c(O)cc2c(c1O)CN(C(=O)[C@@H](N)Cc1c[nH]c3ccccc13)[C@H](C(=O)N[C@@H](CC(CO)CO)C(=O)O)C2 [TMC-2A, reference compound] | showed antioxidant properties |  |  |  |  | similarly accelerated germination | 
5 | COc1c(O)cc2c(c1O)CN(C(=O)[C@@H](N)Cc1c[nH]c3ccccc13)[C@H](C(=O)N[C@@H](CC(C)CO)C(=O)O)C2 (stereo partly shown) [TMC-2B, reference compound] | showed antioxidant properties |  |  |  |  | similarly accelerated germination | 
